Patent US20100160351A1, “PHARMACEUTICAL COMPOSITIONS AND METHODS FOR TREATING HYPERURICEMIA AND RELATED DISORDERS” (NUON THERAPEUTICS, INC., priority 2008, published 2010)
Values joined by “and” are separate entries in the source; they are usually repeats but may differ in a detail not shown here. Equal values may be shown once.

Experiments:
[1] = tested on: serum uric acid (sUA) levels; assay: Study A3006GT: phase 2 crossover, sUA in healthy subjects with screening sUA of at least 7.1 mg/dL; tranilast, febuxostat, combination; type: in vivo, human
Description: Study A3006GT was a phase 2, randomized, double-blind, 3-period, 3-treatment crossover trial. The primary objective was to compare the effects of three treatments on serum uric acid (sUA) levels in healthy subjects with a screening sUA level of at least 7.1 mg/dL. The three treatments were: 300 mg QD tranilast and 40 mg QD febuxostat (C); 300 mg QD tranilast alone (T); 40 mg QD febuxostat alone (F).
The study was conducted in 23 subjects. […] With two exceptions, every subject provided data for all three treatments. Subject 1001 completed only the first two periods of the study (C and F). […] Therefore, the period 3 data for subject 1024 are excluded from the analyses presented here.
Two endpoints were considered: change from baseline to day 7 in sUA; and percent change from baseline to day 7 in sUA. For each endpoint, an analysis of variance (ANOVA) model for a three-period crossover trial was used. The model included effects for sequence, subject within sequence, treatment, and period. The sequence effect was tested using the subject within sequence mean square as the error term. Two pairwise comparisons between treatments were tested: C−F and C−T. In addition, the two-sided 95% confidence interval for each of these differences was computed.
For each subject for which results were available from all three treatments, the difference between the change for C and the sum of the changes for F and T was computed. Although the true magnitude of the difference between these two values is not known, a conservative null hypothesis is that this difference should be equally likely to be greater than or less than zero. The sign test and the Wilcoxon signed rank test were used to test this null hypothesis.
Using the change for each subject as the dependent variable, an analysis of variance (ANOVA) model for a three-period crossover trial was fit. This model included effects for sequence, subject within sequence, treatment, and period. Using the least squares estimates of the mean changes for each treatment, along with the 3×3 covariance matrix of these three estimates, the mean and SD of the difference between C and F+T was estimated, as follows.

[2] = tested on: monosodium urate (MSU) crystal-induced air pouch inflammation; assay: Air Pouch Model 4: MSU crystal air pouch, rodent model of gout; type: in vivo, male Sprague-Dawley rats; conditions: 30 min before MSU; for Average Exudate Volume, Mean / Average Plasma Extravasation, OD620 nm, Mean / Total WBC in Sample, Mean / WBC in exudate, Mean: 4 h after MSU
Description: The objective of this study was to evaluate the anti-inflammatory potency of Tranilast. This evaluation was carried out in male Sprague-Dawley rats in a rodent model of gout. The animals were injected subcutaneously with 20 ml of sterile air, followed three days later by a supplemental injection with 20 ml of sterile air. Six days after the initial sterile air injection, the rats were injected intravenously with Evan's Blue and pretreated for thirty minutes with oral administration of 3 mg/kg, 10 mg/kg, 30 mg/kg, 100 mg/kg, or 300 mg/kg tranilast. After the pretreatment period, the rats were injected with 150 mg of monosodium urate (MSU) crystals (10 mg/ml) into the air pouch. Four hours later, the air pouch was injected with 5 ml heparinized saline and the entire contents of the air pouch removed, recording the total volume. The air pouch contents were evaluated for plasma extravasation and total white blood cell (WBC) count.
(§1) On day 0 the rats were anesthetized in a biological cabinet, the nape of the neck was cleansed with 70% isopropanol followed by iodine tincture (VEDCO). Twenty ml sterile (0.22 μm, Millipore, Cat. SLGSV255F) air was injected subcutaneously using a 23 G×2 inch needle fixed to a 20 ml syringe. The rats were returned to routine housing. No adverse reactions were observed.
as §1, with “day 3” for “day 0”, “μm, Fisher Scientific,” for “μm, Millipore,”, “Cat. 09-720-3)” for “Cat. SLGSV255F)”
On day 6 the rats were weighed (Mettler, Model PE3000, SN: F69474) and injected intravenously injected with 2 ml/kg Evans Blue. The animals were dosed orally with 0.06 ml/kg, 0.2 ml/kg, 0.6 ml/kg, 2 ml/kg, or 6 ml/kg tranilast or 6 ml/kg vehicle.
Thirty minutes after test material administration, the rats were anesthetized and six groups (2-7) were injected into the air pouch with 15 ml MSU using a 19 G×2 inch needle fitted to a 20 ml syringe. Group 1 was injected with 15 ml saline. The rats were returned to their cages, no adverse affects were observed.
Four hours after MSU/saline injection, the rats were anesthetized and 5 ml 10 U/ml heparinized saline was injected into the air pouch. The air pouch was gently massaged, the contents immediately removed using a 14 G×1 inch needle fitted to a 6 ml syringe, and the exudate volume recorded. An aliquot of the exudate was transferred to heparin-treated microtainer tubes (Becton Dickinson, Cat. 365958) for white blood cell (WBC) counting. The remainder of the exudate was centrifuged (Hermle Labrotechnik, Model Z200A, SN: 44060036), the supernatants removed and evaluated at OD620nm (Spectronic Unicam, Model 4000 1/4, SN: 3SGD003006) for plasma extravasation.

[3] = end of 1-week treatment (day 7), C: 300 mg QD tranilast + 40 mg QD febuxostat, T: 300 mg QD, F: 40 mg QD
[4] = individual subjects, per study period, end of the 1-week treatment period

## COc1ccc(/C=C/C(=O)Nc2ccccc2C(=O)O)cc1OC [Tranilast, 2-[[3-(3,4-dimethoxyphenyl)-1-oxo-2-propenyl]amino]benzoic acid]
[1]; [3]
  sUA Change from Baseline, Max: -0.90 mg/dL
  sUA Change from Baseline, Mean: -1.60 mg/dL
  sUA Change from Baseline, Median: -1.40 mg/dL
  sUA Change from Baseline, Min: -3.50 mg/dL
  sUA Percent Change from Baseline, Max: −9.47%
  sUA Percent Change from Baseline, Mean: −21.20%
  sUA Percent Change from Baseline, Median: −18.61%
  sUA Percent Change from Baseline, Min: −47.95%
[1]; [4]
  sUA Change from baseline: −1.4 mg/dL (2×) and −1.1 mg/dL (3×) and −2.1 mg/dL and −2.2 mg/dL (2×) and −1.7 mg/dL (3×) and −1.9 mg/dL and −0.9 mg/dL (2×) and −1.2 mg/dL (3×) and −1.0 mg/dL (2×) and −3.2 mg/dL and −3.5 mg/dL and −1.6 mg/dL
  sUA Percent Change from baseline: −17.50% and −14.86% and −30.43% and −27.85% and −16.42% and −26.98% and −22.09% and −13.64% and −9.47% and −26.15% and −16.00% and −14.29% (2×) and −10.87% and −30.14% and −14.46% and −35.56% and −47.95% and −20.51% and −19.72% and −15.38% and −21.79%
[2]; 3 mg/kg oral
  Average Exudate Volume, Mean: 9.6 mL
  Average Plasma Extravasation, OD620 nm, Mean: 1.940
  Total WBC in Sample, Mean: 368228000
  WBC in exudate, Mean: 38510000 cells/ml
[2]; 10 mg/kg oral
  Average Exudate Volume, Mean: 7.7 mL
  Average Plasma Extravasation, OD620 nm, Mean: 1.662
  Total WBC in Sample, Mean: 471436000
  WBC in exudate, Mean: 61200000 cells/ml
[2]; 30 mg/kg oral
  Average Exudate Volume, Mean: 7.1 mL
  Average Plasma Extravasation, OD620 nm, Mean: 1.089
  Total WBC in Sample, Mean: 286935000
  WBC in exudate, Mean: 39650000 cells/ml
[2]; 100 mg/kg oral
  Average Exudate Volume, Mean: 5.1 mL
  Average Plasma Extravasation, OD620 nm, Mean: 1.180
  Total WBC in Sample, Mean: 159916000
  WBC in exudate, Mean: 31740000 cells/ml
[2]; 300 mg/kg oral
  Average Exudate Volume, Mean: 3.9 mL
  Average Plasma Extravasation, OD620 nm, Mean: 0.613
  Total WBC in Sample, Mean: 77451111
  WBC in exudate, Mean: 19466667 cells/ml
[2]; highest dose 300 mg/kg oral
  inhibition of plasma extravasation: 67%
  inhibition of white blood cell infiltration: 80%
[2]; oral 3-300 mg/kg
  effect on MSU-induced parameters (plasma extravasation, leukocyte infiltration): dose-dependent inhibition
